The source of these data is patent US20250249010A1, “METHODS FOR TREATING PRIMARY MEMBRANOUS NEPHROPATHY” (BEIGENE SWITZERLAND GMBH, priority 2022, published 2025).

One data set has as its system CYP2C19. In words: Clinical drug-drug interaction study (Study BGB-3111-108), CYP2C19. The data set is classed as in vivo. The settings on record: clinical drug-drug interaction study BGB-3111-108.
For the next data set, the system named is CYP3A4. Briefly: Clinical drug-drug interaction study (Study BGB-3111-108), CYP3A4. The data set is classed as in vivo. Conditions: clinical drug-drug interaction study BGB-3111-108.
Data set [1] relates to patients with B-cell malignancies. The settings on record: 320 mg per day (160 mg twice a day); cited from earlier work.

For the molecule `C=CC(=O)N1CCC([C@@H]2CCNc3c(C(N)=O)c(-c4ccc(Oc5ccccc5)cc4)nn32)CC1` [zanubrutinib, (S)-7-(1-acryloylpiperidin-4-yl)-2-(4-phenoxyphenyl)-4,5,6,7-tetrahydropyrazolo[1,5-a]pyrimidine-3-carboxamide], the CYP2C19 induction entry in the data set on CYP2C19 was “mild inducer”. For the same molecule, the CYP3A4 induction entry with CYP3A4 is “mild inducer”. In data set [1], the “efficacy in patients with B-cell malignancies” value is “efficacious” and the “tolerability in patients with B-cell malignancies” value was “well tolerated”.
